Values after ≈ are worked out from the molar mass of the structure shown.
What was measured:
[1] = rats, evaluated by pQCT or histomorphometry; cited from earlier work
[2] = system: PTH-induced bone resorption in mouse calvariae; experiment: Calvarial assay: inhibition of PTH-induced bone resorption (calcium release); assay type: cell-based; conditions: 1 nM PTH 1-34, 72 hours, read-out: Release of PTH Induced Ca++ IC50
Method: Calvaria from 4-day old neonatal CD-1 mice (pregnant mice received from Charles River Laboratories, Wilmington, Mass.) were trimmed with fine-tipped scissors to leave the parietal regions, including the sagittal suture. These trimmed bones were placed singly per well into 6-well cell culture cluster plates (Costar, Pleasanton, Calif.) with 1 mL/well of growth medium (DMEM, BioWhittaker, Walkersville, Md.) with 4.5 g/L glucose, 0.29 mg/mL L-glutamine, 1 mM sodium pyruvate, 15% heat-inactivated horse serum, and antibiotics (penicillin-G 50 μg/mL, streptomycin 50 μg/mL, and neomycin 100 μg/mL), and rocked gently (RedRocker™, model PR50-115V, Hoefer, San Francisco, Calif.) at 37° C. in a 5% CO2 humidified incubator for 24 hours preincubation.
Following preincubation, medium was removed and replaced with 1.5 mL/well of growth medium containing 1 nM parathyroid hormone (PTH) 1-34 (Sigma) to stimulate bone resorption. For evaluation of the ability of calcitonin mimetics to inhibit PTH induced bone resorption, mimetic compounds in DMSO were added to the growth medium at concentrations ranging from 1-400 μg/mL (final assay concentration of DMSO less than or equal to […]). In each exierimerec human calcitonin (0.02-20 nM, 0.2-2 nM preferred) was added to PTH treated bones as a positive control. […] All control wells contained a final assay concentration of DMSO equal to that present in calcitonin mimetic treated wells.
Five bones were included in each sample group. Bones were incubated for 72 hours following PTH addition to allow resorption of bone to occur. Observations were made of the general appearance, healthiness and number of cells that migrate from the calvaria during the incubation as a possible indication of possible toxicity. Calvaria to be examined histologically were transferred to glass scintillation vials containing 10 mL of 10% neutral buffered formalin. The medium was removed from the wells, and total calcium measurements were made using a Nova 7/7+7 Electrolyte Analyzer (Nova Biomedical, Waltham, Mass.) according to the manufacturer's specifications. Induction of bone resorption by PTH is seen as an increase in the concentration of calcium in the growth medium due to degradation of the bone matrix.

[3] = target: T1, human calcitonin receptor (Homo sapiens, UniProt P30988); experiment: CRE-luciferase assay for calcitonin mimetic activity; assay type: cell-based
T1 construct: expressed in transfected cells; host or cells: BHK (baby hamster kidney) cells, line Hollex-2 (Hollex 1 in the general description)
T1 sequence (P30988 25-474): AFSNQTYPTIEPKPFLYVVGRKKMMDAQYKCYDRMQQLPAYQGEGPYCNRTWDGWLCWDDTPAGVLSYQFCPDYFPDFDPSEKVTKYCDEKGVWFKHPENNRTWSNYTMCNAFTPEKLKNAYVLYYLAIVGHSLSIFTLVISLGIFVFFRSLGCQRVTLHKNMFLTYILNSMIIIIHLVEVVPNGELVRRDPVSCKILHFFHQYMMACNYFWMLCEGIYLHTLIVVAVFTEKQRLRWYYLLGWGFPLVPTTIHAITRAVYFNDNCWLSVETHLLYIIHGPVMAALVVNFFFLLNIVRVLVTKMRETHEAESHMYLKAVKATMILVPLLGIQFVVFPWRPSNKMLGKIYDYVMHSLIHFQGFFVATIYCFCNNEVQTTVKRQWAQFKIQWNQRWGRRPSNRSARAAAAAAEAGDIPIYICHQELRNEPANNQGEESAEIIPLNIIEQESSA
Text: An alternative assay system (described in WO96/31536 which is incorporated herein in its entirety) involves selection of substances that are able to induce expression of a cyclic AMP response element (CRE)-luciferase reporter gene, as a consequence of elevated cAMP levels, in cells expressing a calcitonin receptor, but not in cells lacking calcitonin receptor expression. Such cells could include, for example, Boris/KS10-3 (expressing hamster calcitonin receptor and a CRE-luciferase reporter gene in baby hamster kidney cells (BHK 570 cells)) or Hollex 1 (expressing human calcitonin receptor and a CRE-luciferase reporter gene in BHK cells, as described in WO96/31536) or KZ10-20-48/pLJ6-4-25, which expresses the human glucagon receptor and a CRE-luciferase reporter gene in BHK cells. The human glucagon receptor is another member of the G-protein-coupled receptor family that transduces signal through adenylate cyclase-mediated elevation of cAMP.
This CRE-luciferase assay measures the end result of a multi-step signal transduction pathway triggered when a calcitonin mimetic stimulates the G-coupled calcitonin receptor. The complexity of this pathway provides multiple mechanisms for induction of luciferase transcription at points that are downstream of the calcitonin receptor, and therefore may not be calcitonin receptor-specific (e.g., forskolin's direct activation of adenylate cyclase). Any response triggered by non-specific inducers is eliminated by counter screening using the calcitonin receptor-negative cell lines described above.
Receptor-positive and -negative cell lines were maintained by serial passage in growth medium (DMEM supplemented with 10% heat-inactivated fetal calf serum (HI-FCS), 2 mM L-glutamine, 1 mM sodium pyruvate, 250 nM MTX, and 1 mg/mL G418). On the day prior to assay, cells were trypsinized, adjusted to 2×10^5 cells/mL in growth medium, plated in opaque white Dynatech Microlite microtiter tissue culture plates at 100 μL/well (2×10^4 cells), and grown overnight to confluence (37° C., 5% CO2 atmosphere)
Test substances were prepared in DMSO at 100 times the final desired assay concentration. Induction was initiated by adding 100 μL/well test substance diluted 1:100 or 1:1000 (only first round screening extracts were diluted 1:100) in assay medium (DMEM supplemented with 10% HI-FCS, 2 mM L-glutamine, 1 mM sodium pyruvate and 20 mM Hepes, pH 7.25). Controls were included on each plate: untreated wells (basal), […] forskolin, and 100 nM human calcitonin. For test substances prepared in DMSO, an equal concentration of DMSO was included in control wells (not to exceed a final assay concentration of 2% DMSO, with a preferred maximum of 1%). Plates were incubated for 3 to 8 hours (4 hours preferred) at 37° C. in an atmosphere of 5% CO2.
Following induction, luciferase activity was measured using a Promega luciferase assay kit (E1500) according to the assay kit protocol. Briefly, assay medium was removed and cells were washed once with phosphate buffered saline (PBS). After the wash, 25 μL of lysis buffer was added to each well, and the plates were incubated for 15 minutes at room temperature. Fifty microliters of Luciferase Assay Substrate (Promega, Corp.) was added to each well and the plates were transferred to a Labsystems Lumiscan microtiter luminometer. The amount of luminescence (relative light units, RLU) was determined by “Fastscan” following a 0.1 second/well integration of signal. Basal (uninduced) luciferase signal was subtracted from all measurements, and the luciferase signal induced by test samples was expressed as a percentage of the signal in the calcitonin and forskolin controls. […]

Row | IC50 [2] [µg/mL] | melting point [°C] | EC50 [3] [µM] | Compound | bone loss associated with combined ovariectomy and immobilization [1]
1 | – | – | – | calcitonin | very effective at reducing bone loss
2 | 50 (≈ 110 µM) | 79 to 82 | – | COc1cc(CN2CCN(C(=O)Nc3cccc(C(F)(F)F)c3)CC2)cc(OC)c1OC [Compound 850-0277] | –
3 | 25 (≈ 51.4 µM) | – | 206 | COc1cc(CN2CCN(Cc3cc(Br)ccc3O)CC2)cc(Br)c1O [Compound 850-2346] | –
4 | 25 to 50 (≈ 51.8 to 104 µM) | – | 51.8 to 104 | COc1ccc(CN2CCN(Cc3cc(I)c(O)c(OC)c3)CC2)cc1C [Compound 850-0293] | –
5 | 15 (≈ 34.1 µM) | – | 43.2 | COc1cc(CN2CCN(C(=O)Nc3cccc(C(F)(F)F)c3)CC2)cc(O)c1OC [Compound 50-2013] | –
6 | – | – | 291 | COc1cc(CN2CCN(Cc3ccc(OC)c(OC)c3OC)CC2)cc(I)c1O [Compound 850-0221] | –
7 | 20 (≈ 37.7 µM) | – | 66.9 | COc1cc(CN2CCN(Cc3cc(Br)cc(Br)c3O)CC2)cc(OC)c1OC [Compound 850-1085] | –
